Experimental data from patent US20050074879A1, “Antisense oligonucleotide modulation of STAT3 expression” (priority 2000, published 2005).
Oligonucleotides are written 5' to 3', each unit as a sugar letter and its base; * is a phosphorothioate linkage, no mark a phosphodiester; rarer units and linkages stand in square brackets, end groups in braces. Plain capitals give the bases only. e = 2'-O-(2-methoxyethyl) (MOE); [5mC] = 5-methylcytosine; d = 2'-deoxy (DNA)

Legend:
Assay type in all cases: cell-based
Human STAT3 mRNA [1] = assay: Human STAT3 mRNA dose response in T-24 cells, real-time PCR with PPS 199 (Table 18); settings: 16 hours, − decrease, + increase relative to untreated control
Description: The transitional cell bladder carcinoma cell line T-24 was obtained from the American Type Culture Collection (ATCC) (Manassas, Va.). T-24 cells were routinely cultured in complete McCoy's 5A basal media (Gibco/Life Technologies, Gaithersburg, Md.) supplemented with 10% fetal calf serum (Gibco/Life Technologies, Gaithersburg, Md.), penicillin 100 units per mL, and streptomycin 100 micrograms per mL (Gibco/Life Technologies, Gaithersburg, Md.). Cells were routinely passaged by trypsinization and dilution when they reached 90% confluence. Cells were seeded into 96-well plates (Falcon-Primaria #3872) at a density of 7000 cells/well for use in RT-PCR analysis.
Control oligonucleotides used were ISIS 129695 ([…], SEQ ID NO: 391), ISIS 129694 ([…] SEQ ID NO: 392), ISIS 129690 ([…] SEQ ID NO: 393), ISIS 129686 ([…] SEQ ID NO: 394), ISIS 116847 ([…], SEQ ID NO: 395) and ISIS 113529 ([…] SEQ ID NO: 396). These are universal scrambled control oligonucleotides.
(§1) T-24 cells were treated with 18.75, 37.5, 75, or 150 nM of oligonucleotide mixed with 3 ug/mL LIPOFECTIN per 100 nM oligonucleotide as described by other examples herein. Untreated cells served as controls. Following 16 hours of treatment, RNA was prepared from cells for subsequent real-time PCR analysis.
Human STAT3 mRNA expression levels were quantitated by real-time PCR using primer probe set PPS 199 and gene target quantities were normalized using Ribogreen as described in other examples herein. A “−” or “+” designation indicates a decrease or increase of STAT 3 mRNA expression, respectively, relative to untreated control cells.

Human STAT3 mRNA [2] = assay: Human STAT3 mRNA dose response in T-24 cells, real-time PCR with PPS 2033 (Table 19); settings: 16 hours, − decrease, + increase relative to untreated control
Protocol: The dose-response was repeated in T-24 cells and gene target quantities were measured using a different primer-probe set, called PPS 2033 herein. PPS 2033 comprises probes and primers to human STAT3 were designed to hybridize to a human STAT3 sequence, using published sequence information (incorporated herein as SEQ ID NO: XXX). For PPS 2033 the PCR primers were: forward primer: GAGGCCCGCCCAACA (SEQ ID NO: 397) reverse primer: […] (SEQ ID NO: 398) and the PCR probe was: FAM-CTGCCTAGATCGGC-TAMRA (SEQ ID NO: 399) where FAM is the fluorescent reporter dye and TAMRA is the quencher dye. Gene target quantities obtained by real time RT-PCR are normalized by quantifying total RNA using RiboGreen™ (Molecular Probes, Inc. Eugene, Oreg.). Control oligonucleotides used were ISIS 129695 (SEQ ID NO: 391), ISIS 129694 (SEQ ID NO: 392), ISIS 129690 (SEQ ID NO: 393), ISIS 129686 (SEQ ID NO: 394), ISIS 116847 (SEQ ID NO: 395) and ISIS 113529 (SEQ ID NO: 396).
as §1
Human STAT3 mRNA expression levels were quantitated by real-time PCR using primer probe set PPS 2033 and gene target quantities were normalized using Ribogreen as described in other examples herein. A “−” or “+” designation indicates a decrease or increase of STAT 3 mRNA expression, respectively, relative to untreated control cells.

Human STAT3 mRNA [3] = assay: Inhibition of human STAT3 mRNA levels in A549 cells, 75 nM, real-time PCR (Table 13); settings: 75 nM oligonucleotide with LIPOFECTIN, real-time PCR PPS 199, percent inhibition relative to untreated control cells, average of 2 experiments
How it was run: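 A549 cells at 65–75% confluency were transfected in duplicate with 75 nM oligonucleotide plus […] Lipofectin for 4–7 h at 37° C and harvested 16–24 h later. STAT3 mRNA was quantified by real-time RT-PCR with primer-probe set PPS 199 and normalized to RiboGreen total RNA. Inhibition is relative to untreated controls.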

| Substance | Percent change of STAT3 expression using PPS 199 (Human STAT3 mRNA [1]; 18.75 nM oligonucleotide) | Percent change of STAT3 expression using PPS 199 (Human STAT3 mRNA [1]; 37.5 nM oligonucleotide) | Percent change of STAT3 expression using PPS 199 (Human STAT3 mRNA [1]; 75 nM oligonucleotide) | Percent change of STAT3 expression using PPS 199 (Human STAT3 mRNA [1]; 150 nM oligonucleotide) | Percent change of STAT3 expression using PPS 2033 (Human STAT3 mRNA [2]; 18.75 nM oligonucleotide) | Percent change of STAT3 expression using PPS 2033 (Human STAT3 mRNA [2]; 37.5 nM oligonucleotide) | Percent change of STAT3 expression using PPS 2033 (Human STAT3 mRNA [2]; 75 nM oligonucleotide) | Percent change of STAT3 expression using PPS 2033 (Human STAT3 mRNA [2]; 150 nM oligonucleotide) | % Inhib (inhibition of human STAT 3 mRNA levels) (Human STAT3 mRNA [3]) [%] |
| --- | --- | --- | --- | --- | --- | --- | --- | --- | --- |
| 106747 (GCCCATGATGATTTCAGCAA; all C 5-methyl, all phosphorothioate, sugars by position not given here; further chemistry not fully specified) [compound 106747] | −37% | −48% | −71% | −84% | −32% | −48% | −62% | −76% |  |
| 337247 (antisense eT*eT*eT*eT*eG*d[5mC]*dA*dT*dG*dA*dT*dG*dT*dA*dA*e[5mC]*e[5mC]*eA*e[5mC]*eT) [compound 337247] | −23% | −43% | −62% | −75% | +17% | −21% | −53% | −69% | 87 |
| 337384 (antisense eA*eT*eA*e[5mC]*eA*dG*dA*dA*dA*dG*dG*d[5mC]*dT*dA*dT*eG*e[5mC]*eT*eG*eA) [compound 337384] | −40% | −55% | −71% | −80% | −41% | −59% | −69% | −80% | 89 |
| 129694 (antisense GTACAGTTATGCGCGGTAGA; all phosphorothioate, sugars by position and methylation of C not given here; 2'-MOE wings with deoxy gap) [compound 129694] | +4% | −3% | −4% | −10% | +19% | −1% | +7% | +2% |  |
| 337270 (antisense eT*eT*eG*eG*e[5mC]*dT*dT*d[5mC]*dT*d[5mC]*dA*dA*dG*dA*dT*eA*e[5mC]*e[5mC]*eT*eG) [compound 337270] | −29% | −41% | −67% | −87% | −16% | −27% | −67% | −87% | 89 |
| 113529 (antisense CTCTTACTGTGCTGTGGACA; all phosphorothioate, sugars by position and methylation of C not given here; 2'-MOE wings and deoxy gap) [compound 113529] | +1% | −1% | −11% | −26% | +1% | +12% | −11% | −24% |  |
| 116847 (antisense CTGCTAGCCTCTGGATTTGA; all phosphorothioate, sugars by position and methylation of C not given here; 2'-MOE wings and deoxy gap) [compound 116847] | +7% | +4% | +8% | +5% | +45% | +33% | +22% | −2% |  |
| 129695 (antisense TTCTACCTCGCGCGATTTAC; all phosphorothioate, sugars by position and methylation of C not given here; 2'-MOE wings with deoxy gap) [compound 129695] | +5% | +2% | +8% | 0% | −4% | +2% | +8% | +3% |  |
| 337351 (antisense e[5mC]*eT*eA*e[5mC]*e[5mC]*dT*dG*dG*dG*dT*d[5mC]*dA*dG*d[5mC]*dT*eT*e[5mC]*eA*eG*eG) [compound 337351] |  |  |  |  |  |  |  |  | 74 |
| 337326 (antisense eG*eT*e[5mC]*eA*eG*d[5mC]*dT*dG*d[5mC]*dT*d[5mC]*dG*dA*dT*dG*e[5mC]*eT*e[5mC]*eA*eG) [compound 337326] |  |  |  |  |  |  |  |  | 78 |
| 337322 (antisense eT*e[5mC]*eT*eG*eA*d[5mC]*dA*dG*dA*dT*dG*dT*dT*dG*dG*eA*eG*eA*eT*e[5mC]) [compound 337322] |  |  |  |  |  |  |  |  | 69 |
| 337273 (antisense e[5mC]*e[5mC]*eA*eG*e[5mC]*dA*dT*d[5mC]*dT*dG*d[5mC]*dT*dG*d[5mC]*dT*eT*e[5mC]*eT*e[5mC]*e[5mC]) [compound 337273] |  |  |  |  |  |  |  |  | 73 |
